From patent US20110262502A1, “PULMONARY DELIVERY OF 17-HYDROXYPROGESTERONE CAPROATE (17-HPC)” (Prairie Pharmaceuticals LLC, priority 2010, published 2011)
pIC50: −log10 of the molar value. Read-outs that look alike come from different tables or passages of the source.

Key:
[1] = test system: PHA-induced IL-2 production in PBMCs; assay: PHA-induced IL-2 production in PBMCs from healthy male smokers (no IL-2/IL-4 added), ELISA; type: cell-based, human; conditions: for levels of IL-2 in PBMCs: FIG. 1; for % inhibition of PHA stimulation of IL-2: Table 2
Experimental: PBMCs were isolated from human blood buffy coats provided by a regional blood center. Random buffy coat cells from male donors were a by-product of blood processed for clinical use and no details (i.e., personal identification and background) were provided except for tobacco use. […] PBMCs were separated using a porous high density polyethylene barrier (HISTOPAQUE from GEHealthcare Bio-Sciences AB (US). After centrifugation of blood samples in each tube (35 minutes at 800×g at room temperature, or RT), PBMCs were collected and washed twice with Hank's buffered saline solution (HBSS). PBMCs were resuspended in RPMI-1640 medium containing 10% fetal calf serum (FCS) and 15 mM glutamine and cells were counted and plated.
(§1) PBMCs (2×10^6) were incubated with or without IL-2 (13 ng/ml) and IL-4 (6.5 ng/ml) for 48 hours in RPMI-1640 medium containing 10% FCS and 2 mM glutamine. […] IL-2 and IL-4 stimulated PBMCs were also plated at a concentration of 10^6 cells/ml in 96-well plates ready for PHA (15 μg/mL, 24 hours) stimulation of cytokine release and detection by ELISA.
Serial dilutions of standards and PBMCs' supernatants were measured by enzyme linked immunosorbent assay to determine IL-2 at baseline and its levels after 17HPC, P4 and MAP treatments. Optical density was measured at 450 nm and corrected with 550 nm. The concentration of TL-2 was calculated using the standard curve and taking into account the supernatant dilution used. Detection limit for IL-2 is 4.0 pg/ml.
Data are expressed as mean±SD. The efficacies of the drug treatments were analyzed by paired t-test. One-way analysis of variance was used to compare three or more matched groups and 95% CI was performed to present groups differences. All graphs indicate mean values of results or % inhibition of PHA-stimulated IL-2. IC50 values were calculated by using a sigmoidal model (BioDataFit). A p value <0.05 was considered statistically significant.
(§2) IL-2 levels were quantified using ELISA.
IL-2 levels were quantified using ELISA. IC50 values were calculated by using a sigmoidal model (BioDataFit).
as §2, §2, §2

[2] = test system: PHA-induced IL-2 release in IL-2 and IL-4 treated (steroid resistant) PBMCs; assay: IL-2/IL-4 induced steroid resistance model in PBMCs: dexamethasone inhibition of PHA-induced IL-2 release; type: cell-based, human
Experimental: J Immunol 2009; 183; 164-171). […] Following PBMCs stimulation with mitogen phytohaemagglutinin (PHA), there is a strong correlation between cytokine secretion levels and steroid resistance as well as steroid sensitivity in vitro. Addition of IL-2, IL-4 and TNF-reduce steroid sensitivity.
as §1
IL-2/4 induced steroid resistance in PBMCs, a well-recognized study model, was used to evaluate potential modifiers of steroid resistance and sensitivity. PBMCs from healthy smokers were collected. Corticosteroid insensitivity or resistance was induced by adding IL-2 and IL-4 in peripheral blood mononuclear cells (PBMCs) from healthy male smokers (n=˜11). […] IL-2 levels were quantified using ELISA.
J Immunol 2009; 183; 164-171).
as §2

[3] = test system: females with severe asthma; conditions: sublingual; sixteen patients; cited from earlier work
[4] = test system: patients with severe premenstrual exacerbations of asthma; conditions: intramuscular, added to regimen incl. corticosteroids; 3 cases; cited from earlier work
[5] = test system: mitogen-activated protein kinase; conditions: rat uterine smooth muscle; cited from earlier work
[6] = Example 8, Dexamethasone only 10E−6M
[7] = Example 8, Dexamethasone only 10E−8M
[8] = Example 8, Dexamethasone only 10E−11M
[9] = Homo sapiens, PBMC, read-out: % inhibition on PHA-induced IL-2 production
[10] = P4 10^−5M + Dexamethasone 10E−8M
[11] = P4 10^−8M + Dexamethasone 10E−8M
[12] = P4 10^−8M + Dexamethasone 10E−11M
[13] = P4 10^−10M + Dexamethasone 10E−8M

In the case of C[C@@H]1C[C@H]2[C@@H]3CCC4=CC(=O)C=C[C@]4(C)[C@@]3(F)[C@@H](O)C[C@]2(C)[C@@]1(O)C(=O)CO [Dexamethasone], the “% inhibition of PHA-induced IL-2 production” value [1, 6] was “(86%)”, the “mean IL-2” value [1, 6] was 109.6 pg/mL and the “% inhibition of PHA-induced IL-2 production” value [1, 7] was 67%. For the same compound, the “mean IL-2” value [1, 7] was 251.6 pg/mL, the “% inhibition of PHA-induced IL-2 production” value [1, 8] was “(72%)” and the “mean IL-2” value [1, 8] was 216.1 pg/mL. For the same compound, the “levels of IL-2 in PBMCs” value ([1]; dex 10^−8M, PHA, n=17, mean±SD) was 293 ± 338 pg/mL, the “levels of IL-2 in PBMCs” value ([1]; dexamethasone 10^−6M, PHA, n=17, mean±SD) was 144 ± 157 pg/mL and the “levels of IL-2 in PBMCs” value ([1]; dexamethasone 10^−10 M, PHA, n=14, mean±SD) was 287 ± 313 pg/mL. The “levels of IL-2 in PBMCs” value ([1]; dexamethasone 10^−12 M, PHA, n=11, mean±SD) was 371 ± 447 pg/mL, the inhibition at 1 µM ([1]; Homo sapiens, PBMC) was 87% and the pIC50 ([1]; Homo sapiens, PBMC, Dexamethasone+17HPC at lower 17HPC concentrations, read-out: Dexamethasone-IC50) was 10.20 to 12.00. It also gave a pIC50 ([1]; Homo sapiens, PBMC, read-out: Dexamethasone IC50, Dexamethasone only, sigmoidal model, N=14) of 7.50, a pIC50 ([1]; Homo sapiens, PBMC, read-out: Dexamethasone IC50, with 17HPC 10^−5M add-on) of 7.60 and a pIC50 ([1]; Homo sapiens, PBMC, read-out: Dexamethasone IC50, with 17HPC 10^−10M add-on) of 10.20. The inhibition at 0.0001 µM [1, 9] was 52%, the “mean IL-2” value ([1]; Table 1, Dexamethasone only 10^−6M) was 160.6 pg/mL and the “mean IL-2” value ([1]; Table 1, Dexamethasone only 10^−8M) was 398.1 pg/mL. The “mean IL-2” value ([1]; Table 1, Dexamethasone only 10^−10M) was 312.7 pg/mL, the “mean IL-2” value ([1]; Table 1, Dexamethasone only 10^−12M) was 371.7 pg/mL and the “% inhibition of PHA stimulation of IL-2” value ([1]; Dexamethasone only 10^−6 M (Imax)) was 78%. For the same compound, the “% inhibition of PHA stimulation of IL-2” value ([1]; Dexamethasone only 10^−8 M) was 46%, the “% inhibition of PHA stimulation of IL-2” value ([1]; Dexamethasone only 10^−10 M) was 57% and the “% inhibition of PHA stimulation of IL-2” value ([1]; Dexamethasone only 10^−12 M) was 49%. For the same compound, the “effect in basal IL-2 level” value ([1]; no PHA stimulation, data not shown) was “no significant effect”, the “% inhibition on PHA-induced IL-2 production” value ([2]; FIG. 2, Dexamethasone 10^−10 M, with addition of IL-2 and IL-4) was “no inhibition” and the “PHA-induced IL-2 level” value ([2]; FIG. 5, Dexamethasone 10^−10 M without 17HPC) was 2364 pg/mL. It also gave an inhibition at 1 µM [2, 9] of 21%.
For CC(=O)[C@H]1CC[C@H]2[C@@H]3CCC4=CC(=O)CC[C@]4(C)[C@H]3CC[C@]12C [P4, Progesterone], the “patients with an increase in both FEV1 and FVC” value [3] is given as 50%, the “patients with an increase of 27% or greater in PEF” value [3] is given as 50% and the “patients with bronchodilator effect (greater than 12% increase) in either FEV1 or FVC” value [3] is given as 75%. For the same compound, the “effect on premenstrual fall in peak flow rate” value [4] was “eliminated the premenstrual dips in peak flow”, the inhibition at 0.01 µM ([1]; Homo sapiens, PBMC) was 36% and the inhibition at 10 µM ([1]; Homo sapiens, PBMC) was 85%. For the same compound, the inhibition at 0.0001 µM ([1]; Homo sapiens, PBMC, read-out: % inhibition of PHA-induced IL-2 production) was 34%, the inhibition at 0.0001 µM ([1]; Homo sapiens, PBMC, read-out: IL-2 inhibition) was ≥ 86% and the “% inhibition of PHA-induced IL-2 production” value [1, 10] was “(89%)”. The “mean IL-2” value [1, 10] was 81.2 pg/mL, the “mean IL-2” value ([1]; P4 10^−5M, PHA, no Dexamethasone) was 113.8 pg/mL and the “% inhibition of PHA-induced IL-2 production” value [1, 11] was “(88%)”. The “mean IL-2” value [1, 11] was 91.4 pg/mL, the “% inhibition of PHA-induced IL-2 production” value [1, 12] was “(87%)” and the “mean IL-2” value [1, 12] was 100.8 pg/mL. For the same compound, the “mean IL-2” value ([1]; P4 10^−8M, PHA, no Dexamethasone) was 486.2 pg/mL, the “% inhibition of PHA-induced IL-2 production” value [1, 13] was “(92%)” and the “mean IL-2” value [1, 13] was 59.6 pg/mL. The “mean IL-2” value ([1]; P4 10^−10M, PHA, no Dexamethasone) was 506.9 pg/mL, the “effect on MAPK tyrosine phosphorylation and membrane-associated MAPK activity” value [5] was “increased MAPK tyrosine phosphorylation and membrane-associated MAPK activity” and the “subjects with more than 10% improvement in maximal Dexamethasone inhibition” value ([2]; FIGS. 7-8, Dexamethasone 10^−10 M) was 6 out of 8.
